Measured values from US20060216693A1, “Method of screening compounds which inhibit the initiation of the retrotranscription of the rna of virus hiv-1 and means for implementing same” (priority 2003, published 2006).
“And” between values parts separate entries of the source, which are not always exact repeats. Equal values may be shown once.

Key:
[1] = tested on: HIV-1 reverse transcriptase; assay: Synthesis of product corresponding to reverse transcription initiation (addition of first 6 nucleotides to biotinylated tRNAHis primer), scintillation proximity assay; assay type: biochemical; details: calculated
Protocol: FIG. 7: (−) Synthesis of a Product Corresponding to Retrotranscription Initiation from Biotinylated vRNA complex [His-AC-GAC]/tRNA^His
The signal attenuation is detected with […] of AZTTP. The numbers in bold and italic on the top of histograms corresponds to the percent of residual signal compared to the control without inhibitor.
Reactions are stopped by adding EDTA 25 mM and extension product detection is performed as previously described.

[2] = target: HIV-1 reverse transcriptase (Human immunodeficiency virus type 1 group M subtype B, UniProt P04585); details: selectivity measured in initiation and elongation (Rigourd and al., 2000); cited from earlier work
[3] = tested on: HIV-1 reverse transcriptase; details: 5 μM inhibitor, 5 μM each dNTP, 30 minute-reaction, 37° C.

SMILES | Theoretical signal ([1]; [dTTP]/[AZTTP] = 2, selectivity (AZTTP/dTTP) = 0.6) | Theoretical signal ([1]; [dTTP]/[AZTTP] = 2, selectivity (AZTTP/dTTP) = 0.7) | Theoretical signal ([1]; [dTTP]/[AZTTP] = 50, selectivity (AZTTP/dTTP) = 0.6) | Theoretical signal ([1]; [dTTP]/[AZTTP] = 50, selectivity (AZTTP/dTTP) = 0.7) | AZTTP incorporation selectivity against dTTP [2] | inhibition rate of (−) strand strong-stop DNA synthesis [3]
Cc1cn([C@H]2C[C@H](N=[N+]=[N-])[C@@H](CO[P@](=O)(O)O[P@](=O)(O)OP(=O)(O)O)O2)c(=O)[nH]c1=O [AZTTP] | 60.7% | 56.7% | 97.7% | 97.3% | 0.6 and 0.7 | about 90%
Cc1cn([C@H]2C=C[C@@H](COP(=O)(O)OP(=O)(O)OP(=O)(O)O)O2)c(=O)[nH]c1=O [d4TTP] | – | – | – | – | – | 80%
